Reference: patent US5488049A, “Method of treating learning and memory disorders using benzothiadiazide derivatives as nootropic agents” (FIDIA - Georgetown Institute for the Neuro-Sciences, priority 1993, dated 1996)
“Also recorded” adds a separate entry of the source.

Legend:
Gross animal behavior = details: at effective doses
[1] = Entry into the brain (inferred from in vivo activity); details: inferred ("presumably") from in vivo activity or lack of it
GABAA receptors = assay: Preliminary electrophysiological and biochemical radiolabeled binding studies on GABAA receptors
rats [2] = assay: Water maze: drug action on alprazolam-disrupted learning behavior in rats; assay type: in vivo, rat; details: oral 5 mg/kg
Pacata monkeys = assay: Preliminary experiments in Pacata monkeys: working memory; assay type: in vivo
Source text: The present IDRAcompounds are useful for enhancing both short-term memory, long-term memory, and cognitive performance in man. […]. As a result, the compounds of the present invention are useful as therapeutic agents in memory impairment, e.g., due to toxicant exposure, brain injury, epilepsy, mental retardation in children and senile dementia, including Alzheimer's disease.

rats [3] = assay: Water maze: drug action on alprazolam-disrupted learning behavior in rats; assay type: in vivo, rat
Description: Rats (male 250 g b.w.) were trained two days, once a day, in maze A (See insert A). […] Rats were exposed to a new maze configuration (Maze B) in 4 successive trials 15, 30, 45, and 60 min after the i.p. injections.
The water maze apparatus was adapted from Kant et al., (16), and consists of three concentric squares placed inside a 5 ft plastic pool (FIG. 6). The walls of the maze are 50 cm in height and are constructed from black opaque plastic to allow for tracking of the animal with an overhead camera. The alleys between the walls are 16 cm wide. In the center of each wall there is a removable doorway. The opening of doorways allows for the construction of mazes with an increasing number of potential error possibilities. (See diagram for Maze A and Maze B, FIG. 6). The maze is located in a room 10'×15' at constant temperature (18° C.) adjacent to the vivarium. The room is illuminated with overhead lights which also serve as spatial cues. Additional spatial cues are provided by the position of the investigator and a number of small white x's placed within specific locations upon the walls of the maze. The maze is filled with water (18°)C. to a depth of 25 cm.
Seven days prior to drug studies, rats were tested in Maze A (forced maze) on two consecutive days. Pretesting with the "forced" maze enabled the assessment of the animals' general motor, sensory and motivational abilities, and facilitated the exclusion of those animals unable to meet pretesting criteria. Performance was assessed by determining either swim time, errors committed, or path length measured with a computerized recording device. Errors are defined as whole body entry into alleys not leading directly to the exit platform (i.e., shaded portions in FIG. 6). Rats were excluded from the study if their swim path length and/or number of errors were two standard deviations above the mean […] of the entire group. During the first two trials, the rats were placed into the center of the maze and given a maximum of 180 secs to find the "exit platform" located at the "finish" (FIG. 6). The time required, the number of errors, and the path length were recorded for each trial. […] Rats meeting the criteria were randomly divided into groups. On the day of the experiment, a single trial was run (Maze A) in order to establish a baseline of performance. Following drug administration, the rats were again tested once on Maze A to establish a baseline of post-treatment performance. Following an additional interatrial interval of 30 min., the rats were tested on Maze B.
In these experiments, rats were trained in Maze B 15, 30, 45 and 60 min. after drug injection.

[4] = tested on: EPSCs elicited in CAl pyramidal neurons; assay: Excitatory postsynaptic currents (EPSCs) in CAl pyramidal neurons in hippocampal slices on stimulation of Schaffer collateral afferents; assay type: cell-based, rat; details: in vitro; compared with (+) IDRA 21
Description: (§1) Young rats (12-16 days old) were decapitated and the brains quickly removed and placed in ice-cold Ringer solution. Thin slices of hippocampus (250 μm) were then cut with a vibratome slicer (Lancer, St. Louis, Mo.) and kept in Ringer solution at 37° C. until use. The experiments were carried out at room temperature with the slice totally submerged in a 1 ml volume recording chamber and under continuous perfusion with Ringer solution at a rate of 6 ml/min using an upright Hoffman modulation contrast microscope (Carl Zeiss, Germany) equipped with a 40×water immersion objective.
(§2) Ionic currents in whole-cell configuration and outside-out excised membrane patches were monitored using the patch clamp technique (15).
Traces were filtered at 3 KHz (-3 dB, 8-pole, lowpass Bessel filter, Frequency Devices), and stored in an LSI 11/73 computer (INDEC System, Sunnyvale, Calif.) after digitization (10 KHz) with a Data Translation analog to digital converter. Decay time constants of EPSC and glutamate-activated currents were determined from exponential fitting with the 11/73 system by using an entirely automated least-squares procedures (see Vicini and Schuetze, 1985, for further details). This method uses a Simplex algorithm (Caceci and Cacheris, 1984) to fit the data to either a single or double exponential equation of the form I(t)=If exp(-t/tauf)+Is exp(-t/taus), where If and Is are the amplitudes of the sIPSC fast and slow components, and tauf and taus are their respective decay time constants. Peak amplitudes were measured at the absolute maximum of the currents, taking into account the noise of the baseline and noise around the peak. Rise times were measured as the time elapsed from 20 to 80% of the peak amplitude of the response.
The action of nootropic drugs on the excitatory postsynaptic currents (EPSCs) elicited in CAl pyramidal neurons in hippocampal slices was investigated by stimulation of the Schaffer collateral afferents.

[5] = tested on: kainate-activated current; assay: Selectivity: ionic current elicited by 20 μM kainate; assay type: cell-based, rat
Description: as §1
(§3) Media and drug application. The external Ringer solution contained (in mM): NaCl 120; KCl 3.1; CaCl2 2; MgCl2 1; KH2 PO4 1; NaHCO3 26; glucose 2.7; and it was continuously bubbled with 95% O2 and 5% CO2. Patch pipettes were filled with a solution containing (in mM): K-gluconate 140; MgCl2 1; ATP.Mg 2; EGTA 0.5; HEPES-KOH 10, pH 7.2. All the drugs under investigation were applied through the recording chamber perfusion system via parallel inputs having a common entry into the chamber. Agonist application was attained using two different systems that allowed a slow or a rapid solution change. Slow solution changes were used during recordings in whole-cell configuration and were obtained by exchanging the solution of the recording chamber within a few seconds. Fast solution changes were obtained with the use of the Y-shaped tubing method that allows complete exchange of solution in less than 10 ms, and is described in detail by Murase et al. (1989).
as §2

AMPA receptor = assay: Fast application with double barrel pipette: AMPA receptor desensitization in outside-out patches from CAl hippocampal pyramidal neurons; assay type: cell-based, rat; details: comparison compound, lower dose than IDRA 21, concentration not given
Description: as §1, §3
Briefly, a polyethylene tubing (1 mm i.d.) is bent in a U-shaped, and another fine polyethylene tubing (50 μi.d.) and 10 mm length) is inserted into a small hole in the U-tubing making the tip of the Y-tubing. Solutions are fed to the Y-tubing by gravity, and negative pressure facilitates exchange of the solution. The tip of the Y-tubing is positioned 100 μm from the cell investigated, and upon opening and closing of a valve that controls the negative pressure, it was possible to respectively change rapidly and apply a number of different test solutions. This method was used to apply agonists to excised outside-out membrane patches. More rapid drug applications were used to apply agonists to excised outside-out membrane patches, and were obtained through a double-barrelled pipette positioned close to the recording pipette containing the membrane patch. […] The agonist was applied for a period of 150 ms and the time necessary for a complete exchange of the solution was less than 1 ms as measured at the opening of a patch pipette containing different dilutions of the drugs under study. […]
Ionic currents in whole-cell configuration and outside-out excised membrane patches were monitored using the patch clamp technique (15). […]

For `CC1Nc2ccc(Cl)cc2S(=O)(=O)N1` (single isomer, unassigned; (+)) [(+) IDRA 21], the “effect on gross animal behavior (exploratory behavior, stereotypy, ataxia, posture)” value (Gross animal behavior) was “no changes in exploratory behavior, stereotypy, ataxia, posture, etc”, the brain uptake [1] was “taken up by the brain in a sufficient quantity to produce learning and memory enhancing effects” and the “direct action on GABAA receptors” value (GABAA receptors) was “fails to act directly on GABAA receptors”. For the same molecule, the “potency vs racemate in preventing alprazolam-induced amnesia” value (rats [2]) was “significantly more potent than (±) IDRA; also recorded: more potent that (±) IDRA 21”, the “prevention of alprazolam-induced amnesia (enantiomers)” value (rats [2]) was “active in preventing alprazolam-induced amnesia in rats” and the working memory enhancement (Pacata monkeys) was “very potent in enhancing working memory”. For the same molecule, the “disruptive action of alprazolam” value (rats [3]; discussion statement) was “antagonizes the disruptive action of alprazolam”, the “dose dependence of learning and memory enhancing effect” value (rats [3]; rat, in vivo) was “dose-dependent” and the “duration of learning and memory enhancing effect” value (rats [3]; rat, in vivo) was over 1 h. For the same molecule, the “biological activity of enantiomers (summary)” value (rats [3]; summary statement) was “biologically active”.

In the case of `NS(=O)(=O)c1cc2c(cc1Cl)NC(C1CC3C=CC1C3)NS2(=O)=O` (stereo not shown) [cyclothiazide, reference compound], the “efficacy in increasing excitatory synaptic strength in CAl pyramidal neurons” value [4] is reported as “at least as efficacious as (+) IDRA 21”, the brain uptake [1] is reported as “fail to enter the brain” and the “effect on kainate-activated current” value ([5]; 40 μM compound, 20 μM kainate) is reported as “increased the current”. For the same molecule, the “effect on kainate responses at doses that decreased AMPA desensitization” value ([5]; all doses that decrease/inhibit AMPA desensitization) was “potently potentiated kainate responses”, the “removal of glutamate-induced desensitization” value (AMPA receptor) was “completely removed the desensitization induced by glutamate” and the “antagonism of alprazolam amnesic effect” value (rats [3]; doses equimolar to IDRA 21 / (+) IDRA 21) was “unable to antagonize alprazolam-induced impairment of learning behavior”.
